# Data reported in patent US12655150B2 (Cedilla Therapeutics, Inc., priority 2021, dated 2026).
# Test system: EGFR-mutant NSCLC PC-9 cells
# Assay: Apoptosis (caspase 3/7, IncuCyte) in combination with EGFR inhibitor
# Type: cell-based
# Details: apoptotic index; I-41 (10 μM) alone
# Experimental: Apoptosis was detected by CellEvent Caspase 3/7 Green ReadyProbes Reagent (ThermoFisher), a fluorogenic indicator of activated caspase-3/7. Cell death (apoptsis) and cell growth (phase confluence) over time were captured by IncuCyte live cell imaging system (Essen Bioscience) and quantified by IncuCyte S3 software (Essen Bioscience). Apoptotic Index was calculated by dividing apoptosis signal with phase confluence.
row,SMILES,Fold Change over DMSO at 48 hrs
1,"CC(C)(C)c1ccc(-c2nc3cc(C(=O)O)ccc3n3cccc23)cc1 [I-41, 4-(4-(tert-butyl)phenyl)pyrrolo[1,2-a]quinoxaline-7-carboxylic acid]",1.1

# Same assay, conditions: apoptotic index; Osimertinib (100 nM) + I-41 (0.37 μM)
row,SMILES,Fold Change over DMSO at 48 hrs
1,"CC(C)(C)c1ccc(-c2nc3cc(C(=O)O)ccc3n3cccc23)cc1 [I-41, 4-(4-(tert-butyl)phenyl)pyrrolo[1,2-a]quinoxaline-7-carboxylic acid]",4.3

# Same assay, conditions: apoptotic index; Osimertinib (100 nM) + I-41 (1.1 μM)
row,SMILES,Fold Change over DMSO at 48 hrs
1,"CC(C)(C)c1ccc(-c2nc3cc(C(=O)O)ccc3n3cccc23)cc1 [I-41, 4-(4-(tert-butyl)phenyl)pyrrolo[1,2-a]quinoxaline-7-carboxylic acid]",4.9

# Same assay, conditions: apoptotic index; Osimertinib (100 nM) + I-41 (10 μM)
row,SMILES,Fold Change over DMSO at 48 hrs
1,"CC(C)(C)c1ccc(-c2nc3cc(C(=O)O)ccc3n3cccc23)cc1 [I-41, 4-(4-(tert-butyl)phenyl)pyrrolo[1,2-a]quinoxaline-7-carboxylic acid]",5.5

# Same assay, conditions: apoptotic index; Osimertinib (100 nM) alone
row,SMILES,Fold Change over DMSO at 48 hrs
1,"C=CC(=O)Nc1cc(Nc2nccc(-c3cn(C)c4ccccc34)n2)c(OC)cc1N(C)CCN(C)C [Osimertinib, reference compound]",2.6

# Test system: NCI-H226
# Assay: 72H TEAD Proliferation Assay (Cell Titer Glo 2.0)
# Type: cell-based
# Details: Homo sapiens, NCI-H226, 72 h, CTG 2.0, cell line not given (NCI-H226 responsive, NCI-H28 non-responsive)
# Summary of the method: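 Growth read-out is ATP luminescence (CellTiter-Glo 2.0) after 72 h compound exposure, corrected for no-CTG background and day-0 values, with GI50 from nonlinear regression. Sensitive line NCI-H226 (NF2-deficient); non-responsive NCI-H28 (NF2 wild type) distinguishes TEAD-driven from nonspecific growth inhibition.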
row,SMILES,GI50 [nM]
1,"CC(C)(C)c1ccc(-c2nc3cc(C(=O)O)ccc3n3cccc23)cc1 [I-41, 4-(4-(tert-butyl)phenyl)pyrrolo[1,2-a]quinoxaline-7-carboxylic acid]",≤ 1000
2,"CC(C)(C)c1ccc(-c2nc3cc(C(=O)O)ccc3n3cccc23)c(F)c1 [I-49, 4-(4-(tert-Butyl)-2-fluorophenyl)pyrrolo[1,2-a]quinoxaline-7-carboxylic acid]",> 10000
3,"O=C(O)c1ccc2c(c1)nc(N1CCC3(CCCC3)CC1)c1nccn12 [I-57, 4-(8-Azaspiro[4.5]decan-8-yl)imidazo[1,2-a]quinoxaline-7-carboxylic acid]",> 10000
4,"CC[C@H](CO)NC(=O)c1ccc2c(OC)cc(-c3ccc(C(F)(F)F)cn3)nc2c1 [I-358, (R)—N-(1-hydroxybutan-2-yl)-4-methoxy-2-(5-(trifluoromethyl)pyridin-2-yl)quinoline-7-carboxamide]",≤ 1000
5,"O=C(O)c1ccc2c(c1)nc(N1CCC3(CC1)CC3)c1ncnn12 [I-285, 4-(6-azaspiro[2.5]octan-6-yl)-[1,2,4]triazolo[1,5-a]quinoxaline-7-carboxylic acid]",1000 to 5000
6,"O=C(O)c1ccc2c(c1)nc(-c1ccc(Cl)cc1)c1cccn12 [I-48, 4-(4-Chlorophenyl)pyrrolo[1,2-a]quinoxaline-7-carboxylic acid]",> 10000
7,"O=C(O)c1ccc2c(c1)nc(-c1ccc(F)cc1)c1cccn12 [I-43, 4-(4-Fluorophenyl)pyrrolo[1,2-a]quinoxaline-7-carboxylic acid]",> 10000
8,"O=C(O)c1ccc2c(c1)nc(N1CCC(C(F)(F)F)CC1)c1cccn12 [I-38, 4-(4-(Trifluoromethyl)piperidin-1-yl)pyrrolo[1,2-a]quinoxaline-7-carboxylic acid]",> 10000
9,"O=C(O)c1ccc2c(c1)nc(N1CCC3(CCCCC3)CC1)c1cccn12 [I-30, 4-(3-Azaspiro[5.5]undecan-3-yl)pyrrolo[1,2-a]quinoxaline-7-carboxylic acid]",1000 to 5000
10,"C=CC(=O)Nc1nc(-c2ccc(C(C)(C)C)cc2)nc2cc(C(=O)O)ccc12 [I-104, 4-Acrylamido-2-(4-(tert-butyl)phenyl)quinazoline-7-carboxylic acid]",> 10000
11,"C=CC(=O)NCc1cn2ccnc2c(OCc2cccc(C(F)(F)F)c2)n1 [I-294, N-((8-((3-(trifluoromethyl)benzyl)oxy)imidazo[1,2-a]pyrazin-6-yl)methyl) acrylamide]",1000 to 5000
12,"Cc1ccc(-c2nc3cc(C(=O)O)ccc3n3cccc23)cc1 [I-45, 4-(p-Tolyl)pyrrolo[1,2-a]quinoxaline-7-carboxylic acid]",> 10000

# More lines, now with the values ahead:
row,GI50 [nM],SMILES
1,≤ 1000,"C#Cc1cc(-c2ccc(C(F)(F)F)cc2)nc2cc(C(=O)O)ccc12 [I-402, 4-ethynyl-2-(4-(trifluoromethyl)phenyl)quinoline-7-carboxylic acid]"
2,≤ 1000,"C=CC(=O)NCc1cc2cc(F)ccc2c(-c2ccc(C(F)(F)F)cc2)n1 [I-299, N-((6-fluoro-1-(4-(trifluoromethyl)phenyl)isoquinolin-3-yl)methyl)acrylamide]"
3,≤ 1000,"Cc1cc(-c2ccc(C(F)(F)F)cc2)nc2cc(C(=O)NC(C)CO)ccc12 (stereo not drawn) [I-260, N-(1-hydroxypropan-2-yl)-4-methyl-2-(4-(trifluoromethyl)phenyl)quinoline-7-carboxamide]"
4,≤ 1000,"CC[C@H](CO)NC(=O)c1ccc2c(C3CC3)cc(-c3ccc(C(F)(F)F)cc3)nc2c1 [I-399, (R)-4-cyclopropyl-N-(1-hydroxybutan-2-yl)-2-(4-(trifluoromethyl)phenyl)quinoline-7-carboxamide]"
5,≤ 1000,"C=CC(=O)NCc1cc2ccc(F)cc2c(-c2ccc(C(F)(F)F)cc2)n1 [I-295, N-((7-fluoro-1-(4-(trifluoromethyl)phenyl)isoquinolin-3-yl)methyl)acrylamide]"
6,≤ 1000,"C=CC(=O)NCc1cn2nccc2c(-c2ccc(C(F)(F)F)cc2)n1 [I-316, N-((4-(4-(trifluoromethyl)phenyl)pyrazolo[1,5-a]pyrazin-6-yl)methyl)acrylamide]"
7,≤ 1000,"C=CC(=O)NCc1nc(-c2ccc(C(F)(F)F)cc2F)c2ncccc2n1 [I-306, N-((4-(2-fluoro-4-(trifluoromethyl)phenyl)pyrido[3,2-d]pyrimidin-2-yl)methyl)acrylamide]"
